Read-outs that look alike come from different tables or passages of the source.
Legend:
[1] = system: castration resistant metastatic prostate cancer; assay: Randomized clinical study of cabazitaxel vs mitoxantrone, each with prednisone or prednisolone: efficacy; type: in vivo, human
Protocol: (§1) A clinical study was performed wherein patients received either treatment with cabazitaxel or the reference treatment based on mitoxantrone each combined with prednisone or prednisolone.
(§2) More specifically, patients over 18 years of age with metastatic castration resistant metastatic prostate cancer either measurable by RECIST criteria or non-measurable disease with rising PSA levels or appearance of new lesions, ECOG (Eastern Cooperative Oncology Group) performance stage 0-2, and adequate organ function (patients had to have neutrophils >1,500 cells/mm^3, platelets >100,000 cells/mm^3, hemoglobin >10 g/dL, creatinine <1.5×upper limit of normal (ULN), total bilirubin <1×ULN, AST <1.5×ULN, and ALT <1.5×ULN) who had had prior hormone therapy, chemotherapy, and radiotherapy, but had progressive during or after docetaxel treatment (cumulative dose ≥225 mg/m^2) were randomized to 10 mg/day of prednisone with either mitoxantrone 12 mg/m^2 or cabazitaxel 25 mg/m^2, both administered every 3 weeks.
(§3) Patients with a history of congestive heart failure, or myocardial infarction within the last 6 months, or patients with uncontrolled cardiac arrhythmias, angina pectoris, and/or hypertension were not included in the study.
(§4) 720 patients were planned to be included in the clinical study: 360 in each cabazitaxel+prednisone and mitoxantrone+prednisone group. Seven hundred and fifty-five patients (755) (median age 68; 84% white) were actually enrolled, 378 in the cabazitaxel and prednisone/prednisolone group and 377 in the mitoxantrone and prednisone/prednisolone group. The maximal number of treatment cycles was 10 for cabazitaxel and 10 for mitoxantrone. The median number of treatment cycles was 6 for cabazitaxel and 4 for mitoxantrone. The median prior dose of docetaxel treatment was 576 mg/m^2 for the cabazitaxel group and 529 mg/m^2 for the mitoxantrone group. Median follow-up was 12.8 months.
The measurements of the results are performed via the same tests as at inclusion. MRI and spiral computed tomographic (CT) scans are preferably used.
The results are evaluated according to the following criteria (cf RECIST guideline): • overall survival (OS): the time from inclusion to the study to the date of death complete response (CR): disappearance of the lesions • partial response (PR): at least 30% reduction of the largest diameter of the lesion progression (PD): at least 20% increase in the sum of the largest diameter of the lesion or appearance of one or more new lesions • stable disease (SD): reduction of the tumour insufficient to be included in PR and increase of the tumour insufficient to be included in PD.
The confirmations of the measurements are made at least 4 weeks after the response criterion has been established for the first time.
The progression-free survival (PFS) is the time from inclusion in the study and the date of progression or death when the progression is either an increase of the PSA, or of the tumour, or of the pain.

[2] = Same clinical study: adverse reactions, hematologic abnormalities, treatment discontinuation, delays and dose reductions; type: in vivo, human
Protocol: as §1, §2, §3, §4

[3] = Population pharmacokinetic analysis in patients; type: in vivo, human; details: for Cmax: CV 107%; for half-life: 1-hour intravenous infusion, 3-compartment PK model
Protocol: A population pharmacokinetic analysis was conducted in 170 patients with solid tumors at doses ranging from 10 to 30 mg/m^2 weekly or every 3 weeks.

[4] = system: breast cancer; details: phase II, cited from earlier work
[5] = intention-to-treat, N = 377 mitoxantrone, N = 378 cabazitaxel
[6] = human, in vivo, listed as Cabazitaxel
[7] = percent of patients, laboratory values, cabazitaxel: n = 369, mitoxantrone: n = 370

SMILES: CO[C@H]1C(=O)[C@]2(C)[C@@H](OC)C[C@H]3OC[C@@]3(OC(C)=O)[C@H]2[C@H](OC(=O)c2ccccc2)[C@]2(O)C[C@H](OC(=O)[C@H](O)[C@@H](NC(=O)OC(C)(C)C)c3ccccc3)C(C)=C1C2(C)C [cabazitaxel, 4α-acetoxy-2α-benzoyloxy-5β,20-epoxy-1β-hydroxy-7β,10β-dimethoxy-9-oxo-11-taxen-13α-yl (2R,3S)-3-tert-butoxycarbonyl-amino-2-hydroxy-3-phenylpropionate]
- Overall survival Hazard ratio (95% CI) ([1]; CbzP vs MP, intention-to-treat): 0.70
- PFS Hazard ratio (95% CI) ([1]; CbzP vs MP, intention-to-treat): 0.74
- reduction in risk of death ([1]; cabazitaxel vs mitoxantrone, corresponding to hazard ratio 0.70): 30%
- Discontinuation of study treatment for disease progression, (%) ([1]; intention-to-treat): (47.6) %
- Discontinuation of study treatment for disease progression, no. [1, 5]: 180
- Overall survival Median ([1]; intention-to-treat, 25 mg/m^2 cabazitaxel or 12 mg/m^2 mitoxantrone every 3 weeks with prednisone): 15.1 months
- PFS Median ([1]; intention-to-treat, earliest progression in tumor, PSA or pain): 2.8 months
- Rates of febrile neutropenia ([2]; Example 1): 7.5%
- Dose reductions, cycles (%) ([2]; human, in vivo): 9.8%
- Dose reductions, no. of cycles ([2]; human, in vivo): 221
- Treatment delays >9 days, cycles (%) ([2]; human, in vivo): 2.3%
- Treatment delays >9 days, no. of cycles ([2]; human, in vivo): 51
- Treatment delays ≤9 days, cycles (%) ([2]; human, in vivo): 7%
- Treatment delays ≤9 days, no. of cycles ([2]; human, in vivo): 157
- Dose reductions, cycles (%) [2, 6]: (9.8) %
- Treatment delays >9 days, cycles (%) [2, 6]: (2.3) %
- Treatment delays ≤9 days, cycles (%) [2, 6]: (7.0) %
- Discontinuation of study treatment for adverse event, (%) ([2]; intention-to-treat): (17.7) %
- Discontinuation of study treatment for adverse event, no. [2, 5]: 67
- most common (≥5%) grade 3-4 adverse reactions ([2]; patients who received cabazitaxel): neutropenia, leukopenia, anemia, febrile neutropenia, diarrhea, fatigue, and asthenia
- Abdominal Pain Grade 1-4, (%) ([2]; percent of patients of n = 371): (17%)
- Abdominal Pain Grade 3-4, (%) ([2]; percent of patients of n = 371): (2%)
- Alopecia Grade 1-4, (%) ([2]; percent of patients of n = 371): (10%)
- Anorexia Grade 1-4, (%) ([2]; percent of patients of n = 371): (16%)
- Anorexia Grade 3-4, (%) ([2]; percent of patients of n = 371): (<1%)
- Arrhythmia Grade 1-4, (%) ([2]; percent of patients of n = 371): (5%)
- Arrhythmia Grade 3-4, (%) ([2]; percent of patients of n = 371): (1%)
- Arthralgia Grade 1-4, (%) ([2]; percent of patients of n = 371): (11%)
- Arthralgia Grade 3-4, (%) ([2]; percent of patients of n = 371): (1%)
- Asthenia Grade 1-4, (%) ([2]; percent of patients of n = 371): (20%)
- Asthenia Grade 3-4, (%) ([2]; percent of patients of n = 371): (5%)
- Back Pain Grade 1-4, (%) ([2]; percent of patients of n = 371): (16%)
- Back Pain Grade 3-4, (%) ([2]; percent of patients of n = 371): (4%)
- Bone Pain Grade 1-4, (%) ([2]; percent of patients of n = 371): (5%)
- Bone Pain Grade 3-4, (%) ([2]; percent of patients of n = 371): (<1%)
- Constipation Grade 1-4, (%) ([2]; percent of patients of n = 371): (20%)
- Constipation Grade 3-4, (%) ([2]; percent of patients of n = 371): (1%)
- Cough Grade 1-4, (%) ([2]; percent of patients of n = 371): (11%)
- Dehydration Grade 1-4, (%) ([2]; percent of patients of n = 371): (5%)
- Dehydration Grade 3-4, (%) ([2]; percent of patients of n = 371): (2%)
- Diarrhea Grade 1-4, (%) ([2]; percent of patients of n = 371): (47%)
- Diarrhea Grade 3-4, (%) ([2]; percent of patients of n = 371): (6%)
- Dizziness Grade 1-4, (%) ([2]; percent of patients of n = 371): (8%)
- Dysgeusia Grade 1-4, (%) ([2]; percent of patients of n = 371): (11%)
- Dyspepsia Grade 1-4, (%) ([2]; percent of patients of n = 371): (10%)
- Dyspnea Grade 1-4, (%) ([2]; percent of patients of n = 371): (12%)
- Dyspnea Grade 3-4, (%) ([2]; percent of patients of n = 371): (1%)
- Dysuria Grade 1-4, (%) ([2]; percent of patients of n = 371): (7%)
- Fatigue Grade 1-4, (%) ([2]; percent of patients of n = 371): (37%)
- Fatigue Grade 3-4, (%) ([2]; percent of patients of n = 371): (5%)
- Febrile Neutropenia Grade 1-4, (%) ([2]; percent of patients of n = 371): (7%)
- Febrile Neutropenia Grade 3-4, (%) ([2]; percent of patients of n = 371): (7%)
- Headache Grade 1-4, (%) ([2]; percent of patients of n = 371): (8%)
- Hematuria Grade 1-4, (%) ([2]; percent of patients of n = 371): (17%)
- Hematuria Grade 3-4, (%) ([2]; percent of patients of n = 371): (2%)
- Hypotension Grade 1-4, (%) ([2]; percent of patients of n = 371): (5%)
- Hypotension Grade 3-4, (%) ([2]; percent of patients of n = 371): (<1%)
- Mucosal Inflammation Grade 1-4, (%) ([2]; percent of patients of n = 371): (6%)
- Mucosal Inflammation Grade 3-4, (%) ([2]; percent of patients of n = 371): (<1%)
- Muscle Spasms Grade 1-4, (%) ([2]; percent of patients of n = 371): (7%)
- Musculoskeletal Pain Grade 1-4, (%) ([2]; percent of patients of n = 371): (5%)
- Musculoskeletal Pain Grade 3-4, (%) ([2]; percent of patients of n = 371): (<1%)
- Nausea Grade 1-4, (%) ([2]; percent of patients of n = 371): (34%)
- Nausea Grade 3-4, (%) ([2]; percent of patients of n = 371): (2%)
- Pain Grade 1-4, (%) ([2]; percent of patients of n = 371): (5%)
- Pain Grade 3-4, (%) ([2]; percent of patients of n = 371): (1%)
- Pain in Extremity Grade 1-4, (%) ([2]; percent of patients of n = 371): (8%)
- Pain in Extremity Grade 3-4, (%) ([2]; percent of patients of n = 371): (2%)
- Peripheral Edema Grade 1-4, (%) ([2]; percent of patients of n = 371): (9%)
- Peripheral Edema Grade 3-4, (%) ([2]; percent of patients of n = 371): (<1%)
- Peripheral Neuropathy Grade 1-4, (%) ([2]; percent of patients of n = 371): (13%)
- Peripheral Neuropathy Grade 3-4, (%) ([2]; percent of patients of n = 371): (<1%)
- Pneumonia Grade 1-4, (%) ([2]; percent of patients of n = 371): (3%)
- Pneumonia Grade 3-4, (%) ([2]; percent of patients of n = 371): (2%)
- Pyrexia Grade 1-4, (%) ([2]; percent of patients of n = 371): (12%)
- Pyrexia Grade 3-4, (%) ([2]; percent of patients of n = 371): (1%)
- Urinary Tract Infection Grade 1-4, (%) ([2]; percent of patients of n = 371): (8%)
- Urinary Tract Infection Grade 3-4, (%) ([2]; percent of patients of n = 371): (2%)
- Vomiting Grade 1-4, (%) ([2]; percent of patients of n = 371): (22%)
- Vomiting Grade 3-4, (%) ([2]; percent of patients of n = 371): (2%)
- Weight Decreased Grade 1-4, (%) ([2]; percent of patients of n = 371): (9%)
- Anemia Grade 1-4, (%) [2, 7]: (98%)
- Anemia Grade 3-4, (%) [2, 7]: (11%)
- Leukopenia Grade 1-4, (%) [2, 7]: (96%)
- Leukopenia Grade 3-4, (%) [2, 7]: (69%)
- Neutropenia Grade 1-4, (%) [2, 7]: (94%)
- Neutropenia Grade 3-4, (%) [2, 7]: 81.7%
- Thrombocytopenia Grade 1-4, (%) [2, 7]: (48%)
- Thrombocytopenia Grade 3-4, (%) [2, 7]: (4%)
- Neutropenia Grade 3-4, (%) ([2]; percent of patients, laboratory values, cabazitaxel: n = 369, mitoxantrone: n = 370, listed as Cabazitaxel): (82%)
- dose proportionality ([3]; 10 to 30 mg/m^2, patients with advanced solid tumors): No major deviation from the dose proportionality
- volume of distribution (Vss) ([3]; at steady state, for a patient with a median BSA of 1.84 m^2): 2,643 L/m^2
- plasma clearance ([3]; for a patient with a median BSA of 1.84 m^2): 26.4 L/h/m^2
- Tmax ([3]; human, plasma, intravenous, 25 mg/m^2, Cmax reached at the end of the 1-hour infusion): 1 h
- Cmax ([3]; human, plasma, intravenous, 25 mg/m^2, amount administered to provide this Cmax, read-out: Cmax): ~226 ng/mL
- Vd ([3]; human, plasma, intravenous, at steady state, read-out: volume of distribution (Vss)): 4860 L
- half-life ([3]; human, plasma, iv, read-out: α-half-life): 0.0667 h
- half-life ([3]; human, plasma, iv, read-out: β-half-life (converted)): 2 h
- half-life ([3]; human, plasma, iv, read-out: γ-half-life (converted)): 95 h
- Cmax ([3]; male, human, plasma, 25 mg/m2, intravenous 25 mg/m^2 every 3 weeks, patients with metastatic prostate cancer, read-out: mean Cmax): 226 ng/mL
- clearance ([3]; male, human, plasma, intravenous, patients with metastatic prostate cancer, CV 39%): 808 mL/min
- AUC ([3]; male, human, plasma, iv, 25 mg/m2, intravenous 25 mg/m^2 every 3 weeks, patients with metastatic prostate cancer, CV 34%): 991 ng·h/mL
- effect of prednisone or prednisolone on the pharmacokinetics of cabazitaxel ([3]; prednisone or prednisolone 10 mg daily): does not affect
- response level ([4]; prior taxanes and anthracyclines as adjuvant): 14.6%
- response level ([4]; second-line treatment): 9.5%

From patent US12453712B2, “Antitumoral use of cabazitaxel” (Sanofi Mature IP, priority 2009, dated 2025)
